The compounds below were run against PDHK1 (Homo sapiens (Human), UniProt Q15118) (assay: PDHK1 enzymatic assay (AlphaScreen, phosphorylation of PDHE1 S293)). Conditions: 1 nM PDHK1, 25 nM PDHE1, 20 μM ATP, 30° C. for 45 minutes.
Assay type: biochemical
From the text: Pyruvate dehydrogenase complex (PDHc) is an enzyme that catalyzes the reaction of pyruvate and a lipoamide to give the acetylated dihydrolipoamide and carbon dioxide. PDHc has three subunits E1, E2 and E3. E1 has 3 serine phosphorylation sites S293, S232, S300. If E1 was phosphorylated, PDH will be inactivated. PDHK can phosphorylate PDH protein (also named PDHE1) in PDH complex (PDC) to inactivate it.

Chain of PDHK1 (Q15118 29-436): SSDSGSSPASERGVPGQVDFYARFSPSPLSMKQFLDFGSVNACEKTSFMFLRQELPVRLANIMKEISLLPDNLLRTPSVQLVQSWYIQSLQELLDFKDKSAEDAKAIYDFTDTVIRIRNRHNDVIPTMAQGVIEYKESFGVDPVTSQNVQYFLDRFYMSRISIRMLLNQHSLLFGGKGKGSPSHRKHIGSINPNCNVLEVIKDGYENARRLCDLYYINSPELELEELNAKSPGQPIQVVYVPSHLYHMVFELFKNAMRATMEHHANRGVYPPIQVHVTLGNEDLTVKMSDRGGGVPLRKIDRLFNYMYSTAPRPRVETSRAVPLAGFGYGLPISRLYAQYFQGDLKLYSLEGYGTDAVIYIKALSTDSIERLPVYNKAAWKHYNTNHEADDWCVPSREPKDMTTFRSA

SMILES | Enzymatic IC50 against PDHK1 [µg/mL]
CCNc1cc(F)cc2c1NC(=O)C2(C)N1CCC[C@@H](Nc2cc(C)c(S(=O)(=O)F)cn2)C1 (stereo partly drawn) [Example 30, 4-methyl-6-[[(3R)-1-[7-(ethylamino)-5-fluoro-3-methyl-2-oxo-indolin-3-yl]-3-piperidyl]amino]pyridine-3-sulfonyl fluoride] | 0.065
CCNc1cc(F)cc2c1NC(=O)C2(C)N1CCC[C@@H](Nc2cccc(OS(=O)(=O)F)c2)C1 (stereo partly drawn) [Example 31, 7-(ethylamino)-5-fluoro-3-methyl-2-oxo-3-[(3R)-3-(3-fluorosulfonyloxyanilino)-1-piperidyl]indoline] | 0.197
CCNc1cc(F)cc2c1NC(=O)C2(C)N1CCC[C@@H](Nc2ccc(OS(=O)(=O)F)cc2)C1 (stereo partly drawn) [Example 32, 7-(ethylamino)-5-fluoro-3-methyl-2-oxo-3-[(3R)-3-(4-fluorosulfonyloxyanilino)-1-piperidyl]indoline] | 0.135
CCNc1cc(F)cc2c1NC(=O)C2(C)N1CCC[C@@H](Nc2ccc(OS(=O)(=O)F)nc2)C1 (stereo partly drawn) [Example 33, 7-(ethylamino)-5-fluoro-3-methyl-2-oxo-3-[(3R)-3-[(6-fluorosulfonyloxy-3-pyridyl)amino]-1-piperidyl]indoline] | 0.068
C=CS(=O)(=O)c1ccc(N[C@@H]2CCCN(C3(C)C(=O)Nc4c(NCC)cc(F)cc43)C2)cc1 (stereo partly drawn) [Example 34, 7-(ethylamino)-5-fluoro-3-methyl-3-[(3R)-3-(4-vinylsulfonylanilino)-1-piperidyl]indolin-2-one] | 0.032
CCNc1cc(F)cc2c1NC(=O)C2(C)N1CCC[C@@H](NC(=O)c2cc(F)c(O)c(F)c2)C1 (stereo partly drawn) [Example 35, N-[(3R)-1-[7-(ethylamino)-5-fluoro-3-methyl-2-oxo-indolin-3-yl]-3-piperidyl]-3,5-difluoro-4-hydroxy-benzamide] | 0.030
CCNc1cc(F)cc2c1NC(=O)C2(C)N1CCC[C@@H](NC(=O)C2CCS(=O)(=O)CC2)C1 (stereo partly drawn) [Example 36, N-[(3R)-1-[7-(ethylamino)-5-fluoro-3-methyl-2-oxo-indolin-3-yl]-3-piperidyl]-1,1-dioxo-thiane-4-carboxamide] | 0.047
CCNc1cc(F)cc2c1NC(=O)C2(C)N1CCC[C@@H](NC(=O)C2CCN(C#N)CC2)C1 (stereo partly drawn) [Example 38, 1-cyano-N-[(3R)-1-[7-(ethylamino)-5-fluoro-3-methyl-2-oxo-indolin-3-yl]-3-piperidyl]piperidine-4-carboxamide] | 0.026
CCNc1cc(F)cc2c1NC(=O)C2(C)N1CCC[C@@H](NC(=O)C2CC3(C2)CN(C(=O)CCl)C3)C1 (stereo partly drawn) [Example 40, 2-(2-chloroacetyl)-N-[(3R)-1-[7-(ethylamino)-5-fluoro-3-methyl-2-oxo-indolin-3-yl]-3-piperidyl]-2-azaspiro[3.3]heptane-6-carboxamide] | 0.017
C=CC(=O)N1CC2(CC(C(=O)N[C@@H]3CCCN(C4(C)C(=O)Nc5c(NCC)cc(F)cc54)C3)C2)C1 (stereo partly drawn) [Example 41, N-[(3R)-1-[7-(ethylamino)-5-fluoro-3-methyl-2-oxo-indolin-3-yl]-3-piperidyl]-2-prop-2-enoyl-2-azaspiro[3.3]heptane-6-carboxamide] | 0.032
CCNc1cc(F)cc2c1NC(=O)C2(C)N1CCC[C@@H](NC(=O)c2cccc(S(=O)(=O)F)c2)C1 (stereo partly drawn) [Example 42, 3-[[(3R)-1-[7-(ethylamino)-5-fluoro-3-methyl-2-oxo-indolin-3-yl]-3-piperidyl]carbamoyl]benzenesulfonyl fluoride] | 0.020
CCNc1cc(F)cc2c1NC(=O)C2(C)N1CCC[C@@H](NC(=O)c2ccc(S(=O)(=O)F)cc2)C1 (stereo partly drawn) [Example 43, 4-[[(3R)-1-[7-(ethylamino)-5-fluoro-3-methyl-2-oxo-indolin-3-yl]-3-piperidyl]carbamoyl]benzenesulfonyl fluoride] | 0.016
CCNc1cc(F)cc2c1NC(=O)C2(C)N1CCC[C@@H](NC(=O)c2cccc(OS(=O)(=O)F)c2)C1 (stereo partly drawn) [Example 44, 7-(ethylamino)-5-fluoro-3-[(3R)-3-[(3-fluorosulfonyloxybenzoyl)amino]-1-piperidyl]-3-methyl-2-oxo-indoline] | 0.022
CCNc1cc(F)cc2c1NC(=O)C2(C)N1C[C@H](F)C[C@@H](Nc2ccc(C#N)nc2)C1 (stereo partly drawn) [Example 45, 5-[[(3R,5R)-1-[7-(ethylamino)-5-fluoro-3-methyl-2-oxo-indolin-3-yl]-5-fluoro-3-piperidyl]amino]pyridine-2-carbonitrile] | 0.011

The next lines start with the values.

Enzymatic IC50 against PDHK1 [µg/mL] | SMILES
0.012 | CCNc1cc(F)cc2c1NC(=O)C2(C)N1C[C@@H](F)C[C@@H](Nc2ccc(C#N)nc2)C1 (stereo partly drawn) [Example 46, 5-[[(3R,5S)-1-[7-(ethylamino)-5-fluoro-3-methyl-2-oxo-indolin-3-yl]-5-fluoro-3-piperidyl]amino]pyridine-2-carbonitrile]
0.019 | CCNc1cc(F)cc2c1NC(=O)C2(C)N1C[C@@H](C)C[C@@H](Nc2ccc(C#N)nc2)C1 (stereo partly drawn) [Example 47, 5-[[(3R,5S)-1-[7-(ethylamino)-5-fluoro-3-methyl-2-oxo-indolin-3-yl]-5-methyl-3-piperidyl]amino]pyridine-2-carbonitrile]
0.025 | CCNc1cc(F)cc2c1NC(=O)C2(C)N1CC[C@H](F)[C@@H](Nc2ccc(C#N)nc2)C1 (stereo partly drawn) [Example 48, 5-[[(3S,4S)-1-[7-(ethylamino)-5-fluoro-3-methyl-2-oxo-indolin-3-yl]-4-fluoro-3-piperidyl]amino]pyridine-2-carbonitrile]
0.007 | CCNc1cc(F)cc2c1NC(=O)C2(CC)N1CC[C@H](F)[C@@H](Nc2ccc(C#N)nc2)C1 (stereo partly drawn) [Example 49, 5-[[(3S,4S)-1-[3-ethyl-7-(ethylamino)-5-fluoro-2-oxo-indolin-3-yl]-4-fluoro-3-piperidyl]amino]pyridine-2-carbonitrile]
0.014 | CCNc1cc(F)cc2c1NC(=O)C2(C)N1CC[C@H](O)[C@@H](Nc2ccc(C#N)nc2)C1 (stereo partly drawn) [Example 50, 5-[[(3S,4S)-1-[7-(ethylamino)-5-fluoro-3-methyl-2-oxo-indolin-3-yl]-4-hydroxy-3-piperidyl]amino]pyridine-2-carbonitrile]
0.017 | CCNc1cc(F)cc2c1NC(=O)C2(C)N1CC[C@@H](O)[C@@H](Nc2ccc(C#N)nc2)C1 (stereo partly drawn) [Example 51, 5-[[(3S,4R)-1-[7-(ethylamino)-5-fluoro-3-methyl-2-oxo-indolin-3-yl]-4-hydroxy-3-piperidyl]amino]pyridine-2-carbonitrile]
0.020 | CCNc1cc(F)cc2c1NC(=O)C2(C)N1CC[C@H](c2ccccc2)[C@@H](NC(C)=O)C1 (stereo partly drawn) [Example 52, N-[(3R,4R)-1-[7-(ethylamino)-5-fluoro-3-methyl-2-oxo-indolin-3-yl]-4-phenyl-3-piperidyl]acetamide]

Reference: patent US20240140933A1, “OXOINDOLINE COMPOUND FOR THE TREATMENT OF INFLAMMATORY DISEASES OR CANCER” (Hoffmann-La Roche Inc., priority 2021, published 2024)
